Experiments:
DYRK1A kinase = DYRK1A kinase (Homo sapiens, UniProt Q13627); experiment: DYRK1A kinase activity (Ser/Thr 18 peptide Z-lyte FRET assay); type: biochemical; details: recombinant DYRK1A, 30 μM ATP, one hour at room temperature;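 also: kinase activity read as coumarin/fluorescein emission ratio after development step, with unphosphorylated and phosphorylated peptide forms setting 0% and 100% controls, values from dose-response curves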
GSK3β kinase = GSK3β kinase (Homo sapiens, UniProt P49841); experiment: GSK3β kinase activity (Ser/Thr 09 peptide Z-lyte FRET assay); type: biochemical; details: recombinant kinase, 46 μM ATP, one hour at room temperature; read-out: EC50
Chain of GSK3β kinase (P49841 whole entry): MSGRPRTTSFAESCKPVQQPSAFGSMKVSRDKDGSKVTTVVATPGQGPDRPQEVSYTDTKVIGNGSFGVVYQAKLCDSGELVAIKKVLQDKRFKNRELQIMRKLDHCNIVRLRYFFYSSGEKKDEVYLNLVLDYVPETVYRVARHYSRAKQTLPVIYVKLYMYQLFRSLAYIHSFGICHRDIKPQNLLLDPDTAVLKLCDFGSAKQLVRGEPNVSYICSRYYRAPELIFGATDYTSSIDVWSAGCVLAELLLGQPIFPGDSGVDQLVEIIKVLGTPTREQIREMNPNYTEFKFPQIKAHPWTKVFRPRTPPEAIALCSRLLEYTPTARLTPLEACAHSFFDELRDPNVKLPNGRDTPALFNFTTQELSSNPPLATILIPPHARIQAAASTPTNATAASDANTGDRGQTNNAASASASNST

[1] = tested on: SW480 colon carcinoma cells; experiment: Cell viability assay (CellTiter-Glo); details: for inhibition at 10 µM: SW480, read-out: percent inhibition at 10 μM
[2] = tested on: Wnt-responsive Sp5-Luc reporter in SW480 colon carcinoma cells; experiment: Screening assay for Wnt activity (Sp5-Luc reporter gene assay); details: for inhibition at 10 µM: SW480, read-out: percent inhibition at 10 μM
IL-6 = IL-6 inhibition in LPS-stimulated human peripheral blood mononuclear cells (HTRF); details: for inhibition at 10 µM: read-out: percentage in parentheses after EC50 >10
[3] = tested on: α-smooth muscle actin (aSMA) positive LL29 cells; experiment: Inhibition of the fibrotic process: αSMA staining in TGF-β1 treated LL29 fibroblasts from IPF patients; details: for inhibition at 10 µM: read-out: percentage in parentheses after EC50 >10

SMILES | EC50 (DYRK1A kinase) [µM] | EC50 (GSK3β kinase) [µM] | EC50 ([1]; Homo sapiens, SW480, 96 h) [µM] | EC50 ([2]; Homo sapiens, SW480) [µM] | EC50 (IL-6; Homo sapiens, PBMC, 22 h) [µM] | EC50 ([3]; Homo sapiens, Fibroblast, 96 h) [µM] | inhibition at 10 µM ([2]; Homo sapiens) [%] | inhibition at 10 µM (IL-6; Homo sapiens, PBMC) [%] | EC50 ([1]; SW480 cells, four days, CellTiter-Glo) [µM] | percent inhibition at 10 μM ([1]; at 10 μM, given for EC50 of >10 μM, SW480 cell viability) [%] | EC50 ([2]; SW480 Sp5-Luc reporter cells, 36 to 48 hours) [µM] | EC50 (IL-6; huPBMCs, LPS 50 ng/mL, 22 hours, curves starting from 10 μM) [µM] | percentage in parentheses after EC50 >10 (IL-6; huPBMCs, LPS, given beside >10 μM, meaning not given) [%] | EC50 ([3]; LL29 fibroblasts from IPF patients, TGF-β1 20 ng/mL, 4 days, curves from 10 μM to 0.94 nM) [µM] | percentage in parentheses after EC50 >10 ([3]; LL29 fibroblasts, TGF-β1, given beside >10 μM, meaning not given) [%] | inhibition at 10 µM ([1]; Homo sapiens) [%] | inhibition at 10 µM ([3]; Homo sapiens, Fibroblast) [%]
Cn1cc(-c2ccc3cnc(NC(=O)c4coc(C5CCNCC5)n4)cc3n2)cn1 [Compound 241, N-(2-(1-Methyl-1H-pyrazol-4-yl)-1,6-naphthyridin-7-yl)-2-(piperidin-4-yl) oxazole-4-carboxamide] | 0.067 | 0.166 | 0.466 | 0.388 | 3.72 | 1.58 | – | – | – | – | – | – | – | – | – | – | –
CN1CCC(c2nc(C(=O)Nc3cc4nc(-c5cnn(C)c5)ccc4cn3)co2)CC1 [Compound 242, N-(2-(1-Methyl-1H-pyrazol-4-yl)-1,6-naphthyridin-7-yl)-2-(1-methylpiperidin-4-yl)oxazole-4-carboxamide] | 0.06 | 6.85 | 0.541 | 0.268 | 3.62 | 1.42 | – | – | – | – | – | – | – | – | – | – | –
CCN(CC)CC(=O)Nc1cc2nc(-c3cnn(C)c3CN3CCCCC3)ccc2cn1 [Compound 283, 2-(Diethylamino)-N-(2-(1-methyl-5-(piperidin-1-ylmethyl)-1H-pyrazol-4-yl)-1,6-naphthyridin-7-yl)acetamide] | 0.698 | 1.18 | 4.24 | > 10 | > 10 | 3.91 | 43.6 | 7.4 | – | – | – | – | – | – | – | – | –
Cn1cc(-c2ccc3cnc(NC(=O)C(C)(C)F)cc3n2)nn1 [Compound 333] | – | – | – | – | – | – | – | – | > 10 | 35.6 | 0.504 | > 10 | 5.4 | > 10 | 25.2 | – | –
Cn1cc(-c2ccc3cnc(NC(=O)C4CCN(CC5(C(F)(F)F)CC5)CC4)cc3n2)nn1 [Compound 347, N-(2-(1-Methyl-1H-1,2,3-triazol-4-yl)-1,6-naphthyridin-7-yl)-1-((1-(trifluoromethyl)cyclopropyl)methyl)piperidine-4-carboxamide] | 9.99 | > 10 | > 10 | > 10 | > 10 | > 10 | 28.7 | 4 | – | – | – | – | – | – | – | 10.7 | 20.7
CNC(=O)c1ccc(C(=O)Nc2cc3nc(-c4cn(C)nn4)ccc3cn2)cn1 [Compound 372, N^2-Methyl-N^5-(2-(1-methyl-1H-1,2,3-triazol-4-yl)-1,6-naphthyridin-7-yl) pyridine-2,5-dicarboxamide] | 0.067 | 0.255 | > 10 | > 10 | > 10 | 3.64 | 48.7 | 0 | – | – | – | – | – | – | – | 23.2 | –
Cn1cncc1-c1ccc2cnc(NC(=O)C3CCC(F)(F)CC3)cc2n1 [Compound 400, 4,4-Difluoro-N-(2-(1-methyl-1H-imidazol-5-yl)-1,6-naphthyridin-7-yl) cyclohexane-1-carboxamide] | 0.121 | 0.036 | 2.37 | 1.35 | 3.66 | 1.48 | – | – | – | – | – | – | – | – | – | – | –
Cn1cncc1-c1ccc2cnc(NC(=O)c3ccc(F)cc3)cc2n1 [Compound 448, 4-Fluoro-N-(2-(1-methyl-1H-imidazol-5-yl)-1,6-naphthyridin-7-yl)benzamide] | > 10 | > 10 | > 10 | > 10 | 5.13 | > 10 | 2.8 | – | – | – | – | – | – | – | – | 16.2 | 23
CN1CCC(Oc2cccc(C(=O)Nc3cc4nc(-c5cnco5)ccc4cn3)c2)CC1 [Compound 591, 3-((1-Methylpiperidin-4-yl)oxy)-N-(2-(oxazol-5-yl)-1,6-naphthyridin-7-yl)benzamide] | > 10 | > 10 | 3.25 | 6.06 | > 10 | > 10 | – | 0 | – | – | – | – | – | – | – | – | 13.3

From patent US10703748B2, “Diazanaphthalen-3-yl carboxamides and preparation and use thereof” (Samumed, LLC, priority 2017, dated 2020)
